Experimental data as given in ChEMBL document CHEMBL1909046, “DrugMatrix in vitro pharmacology data”.

How the values were obtained:
[1] = target: T1, Progesterone receptor (Bos taurus, UniProt Q690N0); test: DRUGMATRIX: Progesterone radioligand binding (ligand: [3H] R-5020); assay type: tissue-based, Uterus; conditions: Not Active = under 50% inhibition at 10 µM
T1 sequence (Q690N0 whole entry): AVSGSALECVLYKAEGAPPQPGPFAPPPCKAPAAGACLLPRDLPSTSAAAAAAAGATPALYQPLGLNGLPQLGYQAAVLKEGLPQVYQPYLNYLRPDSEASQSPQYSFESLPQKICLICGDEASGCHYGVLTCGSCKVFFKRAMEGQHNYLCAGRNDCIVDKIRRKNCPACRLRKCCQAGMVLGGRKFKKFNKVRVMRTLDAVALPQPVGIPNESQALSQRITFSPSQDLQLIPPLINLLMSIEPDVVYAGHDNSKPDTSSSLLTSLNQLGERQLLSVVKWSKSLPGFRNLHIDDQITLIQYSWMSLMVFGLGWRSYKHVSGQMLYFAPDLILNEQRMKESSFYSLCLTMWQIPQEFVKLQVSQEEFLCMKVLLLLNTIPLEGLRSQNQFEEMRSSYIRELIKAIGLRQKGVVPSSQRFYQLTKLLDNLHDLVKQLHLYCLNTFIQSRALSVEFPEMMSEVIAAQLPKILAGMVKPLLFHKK

[2] = target: 5-hydroxytryptamine receptor 1B (Rattus norvegicus, UniProt P28564); assay type: cell membranes, Wistar, Cerebral cortex, Membrane; note: in other assays of this panel Not Active means under 50% inhibition at 10 µM
[3] = DRUGMATRIX: Phosphodiesterase PDE4 enzyme inhibition (substrate: [3H]cAMP + cAMP); conditions: u-937; Not Active = under 50% inhibition at 10 µM
[4] = target: Mitogen-activated protein kinase 1 (Homo sapiens, UniProt P28482); test: DRUGMATRIX: Protein Serine/Threonine Kinase, ERK2 enzyme inhibition (substrate: Myelin Basic Protein); set-up: species or system Escherichia coli; conditions: Not Active = under 50% inhibition at 10 µM
[5] = target: T2, 3-hydroxy-3-methylglutaryl-coenzyme A reductase (Homo sapiens, UniProt P04035); set-up: species or system Escherichia coli;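 note: enzyme inhibition assay of HMG-CoA reductase using radiolabeled [14C]HMG-CoA as substrate; in other assays of this panel Not Active means under 50% inhibition at 10 µM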
T2 sequence (P04035 whole entry): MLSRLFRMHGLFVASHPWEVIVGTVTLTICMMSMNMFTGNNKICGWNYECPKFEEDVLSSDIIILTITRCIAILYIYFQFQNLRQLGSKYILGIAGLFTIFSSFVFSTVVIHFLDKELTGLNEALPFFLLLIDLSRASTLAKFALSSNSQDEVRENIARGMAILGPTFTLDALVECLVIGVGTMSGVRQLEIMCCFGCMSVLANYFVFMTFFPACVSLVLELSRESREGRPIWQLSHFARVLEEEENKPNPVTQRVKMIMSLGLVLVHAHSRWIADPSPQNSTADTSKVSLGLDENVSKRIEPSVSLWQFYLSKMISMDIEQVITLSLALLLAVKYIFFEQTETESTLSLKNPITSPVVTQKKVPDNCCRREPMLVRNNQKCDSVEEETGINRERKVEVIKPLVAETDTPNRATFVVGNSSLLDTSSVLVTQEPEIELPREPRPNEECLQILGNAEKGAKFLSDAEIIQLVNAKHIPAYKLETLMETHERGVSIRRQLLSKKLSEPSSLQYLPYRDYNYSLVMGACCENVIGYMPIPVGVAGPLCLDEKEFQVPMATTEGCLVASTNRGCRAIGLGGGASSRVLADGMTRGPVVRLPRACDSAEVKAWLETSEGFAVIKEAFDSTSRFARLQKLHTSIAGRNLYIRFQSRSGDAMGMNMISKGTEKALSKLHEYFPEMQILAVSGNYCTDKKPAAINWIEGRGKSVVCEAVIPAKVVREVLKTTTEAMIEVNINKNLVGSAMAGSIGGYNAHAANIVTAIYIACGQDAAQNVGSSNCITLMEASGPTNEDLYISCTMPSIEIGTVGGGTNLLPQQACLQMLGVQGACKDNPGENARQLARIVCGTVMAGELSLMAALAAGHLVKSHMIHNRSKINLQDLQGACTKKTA

[6] = target: Sodium-dependent noradrenaline transporter (Homo sapiens, UniProt P23975); test: DRUGMATRIX: Norepinephrine Transporter radioligand binding (ligand: [125I] RTI-55); assay type: cell membranes, MDCK, Membrane; conditions: mdck; Not Active = under 50% inhibition at 10 µM
[7] = target: Beta-2 adrenergic receptor (Homo sapiens, UniProt P07550); test: DRUGMATRIX: Adrenergic beta2 radioligand binding (ligand: [3H] CGP-12177); assay type: cell membranes, Membrane; conditions: cho; Not Active = under 50% inhibition at 10 µM
[8] = target: Insulin receptor (Rattus norvegicus, UniProt P15127); assay type: cell membranes, Wistar, Liver, Membrane; note: in other assays of this panel Not Active means under 50% inhibition at 10 µM
[9] = DRUGMATRIX: GABAA, Flunitrazepam, Central radioligand binding (ligand: [3H] Flunitrazepam); assay type: cell membranes, Rattus norvegicus, Wistar, Brain, Membrane; conditions: Not Active = under 50% inhibition at 10 µM
[10] = DRUGMATRIX: Purinergic P2X radioligand binding (ligand: [3H] alpha, beta-Methylene-ATP); assay type: cell membranes, Oryctolagus cuniculus, New Zealand albino, Urinary bladder, Membrane; conditions: Not Active = under 50% inhibition at 10 µM
[11] = target: T3, Vasoactive intestinal polypeptide receptor 1 (Homo sapiens, UniProt P32241); assay type: cell membranes, Membrane; conditions: ht-29; note: in other assays of this panel Not Active means under 50% inhibition at 10 µM
T3 sequence (P32241 whole entry): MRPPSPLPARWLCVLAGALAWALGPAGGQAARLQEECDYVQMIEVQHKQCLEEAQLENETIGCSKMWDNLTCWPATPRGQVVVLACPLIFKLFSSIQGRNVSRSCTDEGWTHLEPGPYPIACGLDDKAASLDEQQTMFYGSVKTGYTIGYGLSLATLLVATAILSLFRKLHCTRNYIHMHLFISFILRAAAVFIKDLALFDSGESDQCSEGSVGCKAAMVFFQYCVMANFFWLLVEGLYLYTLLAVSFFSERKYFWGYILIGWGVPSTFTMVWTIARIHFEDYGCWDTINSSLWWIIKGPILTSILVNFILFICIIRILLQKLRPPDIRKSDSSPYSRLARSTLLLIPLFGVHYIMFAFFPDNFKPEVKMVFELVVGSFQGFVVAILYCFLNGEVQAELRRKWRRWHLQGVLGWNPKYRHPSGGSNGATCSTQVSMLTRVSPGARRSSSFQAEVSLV

[12] = target: Tyrosine-protein kinase Fyn (Homo sapiens, UniProt P06241); test: biochemical; assay type: cell-based, Insect cells; conditions: insect cells
Chain of Tyrosine-protein kinase Fyn (P06241 whole entry): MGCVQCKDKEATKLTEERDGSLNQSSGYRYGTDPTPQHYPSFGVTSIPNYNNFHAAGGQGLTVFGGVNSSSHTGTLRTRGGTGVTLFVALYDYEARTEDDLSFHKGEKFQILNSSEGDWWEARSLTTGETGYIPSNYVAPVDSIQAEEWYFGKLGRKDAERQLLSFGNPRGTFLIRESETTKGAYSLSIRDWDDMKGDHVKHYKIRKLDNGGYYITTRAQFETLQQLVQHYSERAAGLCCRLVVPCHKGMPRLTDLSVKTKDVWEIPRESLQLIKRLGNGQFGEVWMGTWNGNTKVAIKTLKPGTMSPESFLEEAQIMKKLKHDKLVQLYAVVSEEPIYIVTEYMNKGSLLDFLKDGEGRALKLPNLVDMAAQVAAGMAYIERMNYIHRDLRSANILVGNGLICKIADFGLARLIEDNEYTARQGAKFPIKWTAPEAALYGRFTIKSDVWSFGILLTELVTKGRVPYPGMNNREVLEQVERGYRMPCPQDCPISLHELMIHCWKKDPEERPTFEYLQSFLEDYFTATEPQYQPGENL

Chain of Insulin receptor (P15127 27-759 limits assumed): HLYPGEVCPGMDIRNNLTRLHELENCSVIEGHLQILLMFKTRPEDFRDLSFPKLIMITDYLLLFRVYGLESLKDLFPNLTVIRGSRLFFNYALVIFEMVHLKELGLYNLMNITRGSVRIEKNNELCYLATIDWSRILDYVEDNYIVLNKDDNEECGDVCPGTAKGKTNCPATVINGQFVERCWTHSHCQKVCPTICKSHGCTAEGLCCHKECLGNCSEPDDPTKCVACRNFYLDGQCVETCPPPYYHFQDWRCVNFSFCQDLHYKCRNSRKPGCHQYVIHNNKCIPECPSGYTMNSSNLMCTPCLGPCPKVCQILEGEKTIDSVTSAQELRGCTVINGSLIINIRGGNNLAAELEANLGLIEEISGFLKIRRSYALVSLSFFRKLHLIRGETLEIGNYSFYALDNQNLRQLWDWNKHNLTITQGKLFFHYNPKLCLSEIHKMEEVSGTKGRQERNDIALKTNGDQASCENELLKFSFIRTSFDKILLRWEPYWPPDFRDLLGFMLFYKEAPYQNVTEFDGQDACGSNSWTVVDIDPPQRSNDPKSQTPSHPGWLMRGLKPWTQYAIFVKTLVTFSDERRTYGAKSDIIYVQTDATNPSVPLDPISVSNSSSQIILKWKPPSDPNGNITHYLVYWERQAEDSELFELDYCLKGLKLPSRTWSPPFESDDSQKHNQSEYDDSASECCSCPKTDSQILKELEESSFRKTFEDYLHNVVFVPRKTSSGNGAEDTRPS
Chain of Insulin receptor (P15127 764-1383 limits assumed): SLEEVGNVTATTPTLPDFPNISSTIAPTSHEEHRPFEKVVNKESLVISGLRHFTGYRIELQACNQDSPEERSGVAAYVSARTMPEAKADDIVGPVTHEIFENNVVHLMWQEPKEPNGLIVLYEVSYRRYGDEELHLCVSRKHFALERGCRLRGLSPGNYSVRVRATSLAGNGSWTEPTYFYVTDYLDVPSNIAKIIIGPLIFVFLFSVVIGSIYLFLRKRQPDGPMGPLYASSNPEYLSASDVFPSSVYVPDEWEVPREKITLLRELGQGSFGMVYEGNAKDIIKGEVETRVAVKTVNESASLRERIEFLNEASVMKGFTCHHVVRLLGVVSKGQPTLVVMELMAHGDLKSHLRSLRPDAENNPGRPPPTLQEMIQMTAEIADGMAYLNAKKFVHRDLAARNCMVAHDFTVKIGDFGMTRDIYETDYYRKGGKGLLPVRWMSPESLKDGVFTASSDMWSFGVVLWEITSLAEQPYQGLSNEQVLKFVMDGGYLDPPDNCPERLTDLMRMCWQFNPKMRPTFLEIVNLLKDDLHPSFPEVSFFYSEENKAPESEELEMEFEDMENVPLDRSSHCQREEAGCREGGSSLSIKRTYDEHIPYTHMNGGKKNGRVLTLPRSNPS
Chain of Beta-2 adrenergic receptor (P07550 whole entry): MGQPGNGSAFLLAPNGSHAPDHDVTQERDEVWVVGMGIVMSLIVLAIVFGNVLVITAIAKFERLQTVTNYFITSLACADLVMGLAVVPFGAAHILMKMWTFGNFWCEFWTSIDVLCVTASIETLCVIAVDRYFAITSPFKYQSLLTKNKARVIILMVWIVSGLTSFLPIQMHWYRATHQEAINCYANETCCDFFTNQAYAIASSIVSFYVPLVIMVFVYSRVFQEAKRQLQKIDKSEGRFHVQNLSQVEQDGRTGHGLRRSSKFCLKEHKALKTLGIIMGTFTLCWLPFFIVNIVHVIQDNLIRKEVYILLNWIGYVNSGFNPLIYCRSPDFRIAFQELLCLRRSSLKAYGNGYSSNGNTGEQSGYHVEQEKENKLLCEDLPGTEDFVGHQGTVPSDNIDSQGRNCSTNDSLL
Chain of 5-hydroxytryptamine receptor 1B (P28564 whole entry): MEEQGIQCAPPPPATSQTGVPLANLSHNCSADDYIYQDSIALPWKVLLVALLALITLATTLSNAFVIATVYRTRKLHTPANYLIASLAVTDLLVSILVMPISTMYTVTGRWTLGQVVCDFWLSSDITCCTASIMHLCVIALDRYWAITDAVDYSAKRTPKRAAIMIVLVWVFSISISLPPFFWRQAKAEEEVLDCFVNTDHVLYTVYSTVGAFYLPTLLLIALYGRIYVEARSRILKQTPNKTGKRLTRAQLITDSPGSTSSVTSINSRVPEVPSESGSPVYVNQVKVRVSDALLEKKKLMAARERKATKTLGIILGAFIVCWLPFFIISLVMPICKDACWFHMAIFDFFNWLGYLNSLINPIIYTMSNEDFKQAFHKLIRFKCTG
Chain of Mitogen-activated protein kinase 1 (P28482 whole entry): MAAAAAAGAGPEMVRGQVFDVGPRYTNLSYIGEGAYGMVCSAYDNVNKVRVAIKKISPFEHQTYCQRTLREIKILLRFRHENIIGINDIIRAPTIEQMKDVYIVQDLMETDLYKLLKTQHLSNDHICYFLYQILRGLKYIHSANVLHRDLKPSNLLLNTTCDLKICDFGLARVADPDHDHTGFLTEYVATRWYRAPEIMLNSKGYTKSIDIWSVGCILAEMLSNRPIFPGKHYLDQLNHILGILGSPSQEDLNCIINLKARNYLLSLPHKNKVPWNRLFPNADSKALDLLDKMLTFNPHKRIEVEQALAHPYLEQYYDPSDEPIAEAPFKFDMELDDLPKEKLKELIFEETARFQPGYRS
Chain of Sodium-dependent noradrenaline transporter (P23975 whole entry): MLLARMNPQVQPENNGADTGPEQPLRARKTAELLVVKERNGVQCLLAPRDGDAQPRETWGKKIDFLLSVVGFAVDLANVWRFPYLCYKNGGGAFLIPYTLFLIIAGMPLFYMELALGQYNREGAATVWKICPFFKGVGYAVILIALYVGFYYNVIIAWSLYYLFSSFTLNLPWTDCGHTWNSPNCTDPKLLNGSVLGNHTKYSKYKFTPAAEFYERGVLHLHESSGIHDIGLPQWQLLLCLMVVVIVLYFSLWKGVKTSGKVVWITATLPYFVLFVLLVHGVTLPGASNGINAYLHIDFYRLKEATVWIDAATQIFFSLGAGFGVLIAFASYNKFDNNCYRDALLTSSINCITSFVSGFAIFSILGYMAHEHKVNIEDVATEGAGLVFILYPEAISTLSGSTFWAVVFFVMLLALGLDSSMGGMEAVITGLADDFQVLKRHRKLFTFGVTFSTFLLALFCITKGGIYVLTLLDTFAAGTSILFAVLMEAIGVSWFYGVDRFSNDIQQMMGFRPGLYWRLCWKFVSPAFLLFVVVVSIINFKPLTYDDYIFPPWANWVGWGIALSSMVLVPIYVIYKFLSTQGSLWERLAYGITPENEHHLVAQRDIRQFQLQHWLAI

| SMILES | IC50 [1] | IC50 [2] | IC50 [3] | Ki [3] | IC50 [4] | IC50 [5] | IC50 [6] | IC50 [7] | IC50 [8] | IC50 [9] | Ki [9] | IC50 [10] | Ki [10] | IC50 [11] | IC50 [12] | IC50 ([9]; read-out: IC50) [nM] | Ki ([9]; read-out: Ki) [nM] |
| --- | --- | --- | --- | --- | --- | --- | --- | --- | --- | --- | --- | --- | --- | --- | --- | --- | --- |
| COC1=CC(=O)C[C@@H](C)[C@]12Oc1c(Cl)c(OC)cc(OC)c1C2=O [GRISEOFULVIN] | Not Active | Not Active | Not Active | Not Active | Not Active | Not Active | Not Active | Not Active | Not Active | Not Active | Not Active | Not Active | Not Active | Not Active | Not Active | – | – |
| C/C=C1\[C@H]2C=C(C)C[C@]1(N)c1ccc(=O)[nH]c1C2 [HUPERZINE A] | Not Active | Not Active | Not Active | Not Active | Not Active | Not Active | Not Active | Not Active | Not Active | Not Active | Not Active | Not Active | Not Active | Not Active | Not Active | – | – |
| NS(=O)(=O)c1cc2c(cc1Cl)NCNS2(=O)=O [HYDROCHLOROTHIAZIDE] | Not Active | Not Active | Not Active | Not Active | Not Active | Not Active | Not Active | Not Active | Not Active | Not Active | Not Active | Not Active | Not Active | Not Active | Not Active | – | – |
| O=P1(NCCCl)OCCCN1CCCl (stereo not given) [IFOSFAMIDE] | Not Active | Not Active | Not Active | Not Active | Not Active | Not Active | Not Active | Not Active | Not Active | Not Active | Not Active | Not Active | Not Active | Not Active | Not Active | – | – |
| CN1CCC[C@H]1c1cccnc1 [NICOTINE] | Not Active | Not Active | Not Active | Not Active | Not Active | Not Active | Not Active | Not Active | Not Active | Not Active | Not Active | Not Active | Not Active | Not Active | Not Active | – | – |
| O=C1CN=C(c2ccccc2)c2cc([N+](=O)[O-])ccc2N1 [NITRAZEPAM] | Not Active | Not Active | Not Active | Not Active | Not Active | Not Active | Not Active | Not Active | Not Active | – | – | Not Active | Not Active | Not Active | Not Active | 54.7 | 44.6 |
| Oc1cccc2cccnc12 [OXYQUINOLINE] | Not Active | Not Active | Not Active | Not Active | Not Active | Not Active | Not Active | Not Active | Not Active | Not Active | Not Active | Not Active | Not Active | Not Active | Not Active | – | – |
